Data published in publication PMC9974468 (Proceedings of the National Academy of Sciences of the …, 2023).

Experiments:
Format in all cases: binding
[1] = target: FGFR2K (FGFR2 kinase domain) (Homo sapiens, UniProt P21802, C491A); experiment: NMR titration, 1H/[…] HMQC chemical shift perturbation
[2] = target: FGFR2K V564E^0Y (FGFR2 kinase domain) (Homo sapiens, UniProt P21802, C491A/V564E/Y466F/Y586L/Y588P/Y656F/Y657F); experiment: NMR titration, 1H/[…] methyl HMQC chemical shift perturbation
[3] = target: FGFR2K V564I^0Y (FGFR2 kinase domain) (Homo sapiens, UniProt P21802, C491A/V564I/Y466F/Y586L/Y588P/Y656F/Y657F); experiment: as above
[4] = target: FGFR2K WT^0Y (FGFR2 kinase domain) (Homo sapiens, UniProt P21802, C491A/Y466F/Y586L/Y588P/Y656F/Y657F); experiment: as above
Sequence of FGFR2K WT^0Y (FGFR2 kinase domain) (P21802 458-768 Y466F/C491A/Y586L/Y588P/Y656F/Y657F): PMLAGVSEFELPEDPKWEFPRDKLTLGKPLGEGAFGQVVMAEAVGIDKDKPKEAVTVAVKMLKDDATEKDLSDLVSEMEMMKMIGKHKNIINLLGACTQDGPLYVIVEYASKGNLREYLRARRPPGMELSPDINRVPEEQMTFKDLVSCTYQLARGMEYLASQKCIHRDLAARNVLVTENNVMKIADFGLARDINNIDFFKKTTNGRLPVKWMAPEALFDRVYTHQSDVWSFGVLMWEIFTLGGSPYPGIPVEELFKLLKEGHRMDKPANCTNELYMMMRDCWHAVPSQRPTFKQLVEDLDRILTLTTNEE

Sequence of FGFR2K V564E^0Y (FGFR2 kinase domain) (P21802 458-768 Y466F/C491A/V564E/Y586L/Y588P/Y656F/Y657F): as the sequence (P21802 458-768 Y466F/C491A/Y586L/Y588P/Y656F/Y657F) above, with V107E counted along it
Sequence of FGFR2K V564I^0Y (FGFR2 kinase domain) (P21802 458-768 Y466F/C491A/V564I/Y586L/Y588P/Y656F/Y657F): as the sequence (P21802 458-768 Y466F/C491A/Y586L/Y588P/Y656F/Y657F) above, with V107I counted along it
Sequence of FGFR2K (FGFR2 kinase domain) (P21802 458-768 C491A): as the sequence (P21802 458-768 Y466F/C491A/Y586L/Y588P/Y656F/Y657F) above, with F9Y, L129Y, P131Y, F199Y, F200Y counted along it

SMILES | Kd [1] [µM] | Kd [2] [µM] | Kd [3] [µM] | Kd [4] [µM]
Nc1ncnc2c1ncn2[C@@H]1O[C@H](COP(=O)(O)OP(=O)(O)CP(=O)(O)O)[C@@H](O)[C@H]1O [AMP-PCP] | 2900 ± 100 |  |  | 
Nc1ncnc2c1ncn2[C@@H]1O[C@H](COP(=O)(O)OP(=O)(O)OP(=O)(O)O)[C@@H](O)[C@H]1O [ATP] |  | 140 ± 20 | 280 ± 30 | 450 ± 70
